Data reported in ChEMBL document CHEMBL1201862, “PubChem BioAssay data set” (2004).
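Method: 48-hour compound exposure of cells in 96-well plates, five concentrations, linear interpolation of endpoints. GI50 is the concentration that inhibits growth by half.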 Activity calls are given as the source filed them. Cut-off read from the data, not from the text of the source: active = GI50 up to about 1.1 µM and inactive = higher.

Columns and labels:
Test in all cases: inhibition of tumour cell growth, NCI panel, 48 h
SNB-75 = tested on: SNB-75
NCI-H522 = tested on: NCI-H522
A549 = tested on: A549
EKVX = tested on: EKVX
IGROV-1 = tested on: IGROV-1
COLO 205 = tested on: COLO 205
SK-MEL-5 = tested on: SK-MEL-5
TK-10 = tested on: TK-10
UO-31 = tested on: UO-31
A498 = tested on: A498
OVCAR-3 = tested on: OVCAR-3
CAKI-1 = tested on: CAKI-1
KM-20L2 = tested on: KM-20L2
K562 = tested on: K562
UACC-62 = tested on: UACC-62
NCI-H23 = tested on: NCI-H23
NCI-H226 = tested on: NCI-H226
HL-60 = tested on: HL-60

| SMILES | GI50 (SNB-75) | GI50 (NCI-H522) | GI50 (A549) | GI50 (EKVX) | GI50 (IGROV-1) | GI50 (COLO 205) | GI50 (SK-MEL-5) | GI50 (TK-10) | GI50 (UO-31) | GI50 (A498) | GI50 (OVCAR-3) | GI50 (CAKI-1) | GI50 (KM-20L2) | GI50 (K562) | GI50 (UACC-62) | GI50 (NCI-H23) | GI50 (NCI-H226) | GI50 (HL-60) |
| --- | --- | --- | --- | --- | --- | --- | --- | --- | --- | --- | --- | --- | --- | --- | --- | --- | --- | --- |
| COc1ccc(OC)c(CCc2cc(OC)c(OC)cc2C)c1 | 16.8 µM (inactive) | 3.65 µM (inactive) | 29.3 µM (inactive) | 84.9 µM (inactive) | 8.47 µM (inactive) | 33.4 µM (inactive) | 1.62 µM (inactive) | 89.7 µM (inactive) | 30.1 µM (inactive) | > 100 µM (inactive) | 3.05 µM (inactive) | 52 µM (inactive) | 49.8 µM (inactive) | 3.64 µM (inactive) | 25.2 µM (inactive) | 32.1 µM (inactive) | – | – |
| Nc1nc2c(ncn2CCOC(c2ccccc2)P(=O)(O)O)c(=O)[nH]1 (stereo not given) | > 100 µM (inactive) | > 100 µM (inactive) | > 100 µM (inactive) | > 100 µM (inactive) | > 100 µM (inactive) | > 100 µM (inactive) | > 100 µM (inactive) | > 100 µM (inactive) | > 100 µM (inactive) | > 100 µM (inactive) | > 100 µM (inactive) | > 100 µM (inactive) | > 100 µM (inactive) | – | > 100 µM (inactive) | > 100 µM (inactive) | > 100 µM (inactive) | > 100 µM (inactive) |
| COC(=O)C(=O)C(/C(=N/N)C(=O)Nc1ccccc1C(N)=O)c1nc2ccc([N+](=O)[O-])cc2nc1O (stereo not given) | – | > 100 µM (inactive) | > 100 µM (inactive) | 18.4 µM (inactive) | > 100 µM (inactive) | > 100 µM (inactive) | > 100 µM (inactive) | > 100 µM (inactive) | 58.2 µM (inactive) | 1.01 µM (active) | > 100 µM (inactive) | > 100 µM (inactive) | > 100 µM (inactive) | > 100 µM (inactive) | > 100 µM (inactive) | > 100 µM (inactive) | 29.3 µM (inactive) | > 100 µM (inactive) |
| O=C1OCc2nc3c(c(-c4ccccc4C(F)(F)F)c21)C(=O)OC3 | – | > 100 µM (inactive) | > 100 µM (inactive) | > 100 µM (inactive) | > 100 µM (inactive) | > 100 µM (inactive) | > 100 µM (inactive) | > 100 µM (inactive) | > 100 µM (inactive) | > 100 µM (inactive) | > 100 µM (inactive) | – | > 100 µM (inactive) | > 100 µM (inactive) | > 100 µM (inactive) | > 100 µM (inactive) | – | > 100 µM (inactive) |
| COc1ccccc1C1C(C(=O)Nc2ccccc2)=C(C)NC(C)=C1C(=O)Nc1ccccc1 | > 100 µM (inactive) | 48.1 µM (inactive) | – | 91.4 µM (inactive) | 34.4 µM (inactive) | 24.5 µM (inactive) | 31.8 µM (inactive) | 89.5 µM (inactive) | 56.5 µM (inactive) | 31.7 µM (inactive) | 84.1 µM (inactive) | > 100 µM (inactive) | 94.8 µM (inactive) | 44.8 µM (inactive) | 40.6 µM (inactive) | > 100 µM (inactive) | 53 µM (inactive) | – |
| S=c1[nH]c(=S)c2nnn(-c3ccccc3)c2[nH]1 | > 100 µM (inactive) | > 100 µM (inactive) | > 100 µM (inactive) | > 100 µM (inactive) | > 100 µM (inactive) | > 100 µM (inactive) | > 100 µM (inactive) | > 100 µM (inactive) | > 100 µM (inactive) | – | > 100 µM (inactive) | > 100 µM (inactive) | > 100 µM (inactive) | > 100 µM (inactive) | > 100 µM (inactive) | > 100 µM (inactive) | > 100 µM (inactive) | > 100 µM (inactive) |
| COc1ccc(C2=Nc3ccccc3SC(C)C2)cc1 (stereo not given) | > 100 µM (inactive) | > 100 µM (inactive) | > 100 µM (inactive) | > 100 µM (inactive) | > 100 µM (inactive) | > 100 µM (inactive) | – | > 100 µM (inactive) | > 100 µM (inactive) | > 100 µM (inactive) | > 100 µM (inactive) | > 100 µM (inactive) | > 100 µM (inactive) | 24.4 µM (inactive) | > 100 µM (inactive) | > 100 µM (inactive) | > 100 µM (inactive) | 46 µM (inactive) |
| O=c1[nH]c2nc3ccccc3c(=O)n2nc1Cc1ccccc1 | > 100 µM (inactive) | 98.2 µM (inactive) | > 100 µM (inactive) | > 100 µM (inactive) | 45.1 µM (inactive) | > 100 µM (inactive) | > 100 µM (inactive) | – | 56.8 µM (inactive) | – | 44.2 µM (inactive) | > 100 µM (inactive) | > 100 µM (inactive) | > 100 µM (inactive) | > 100 µM (inactive) | > 100 µM (inactive) | 94.6 µM (inactive) | – |
